The source of these data is US20190240502A1, “METHODS, COMPOSITIONS AND APPARATUSES FOR TREATING PSORIASIS BY PHOTOTHERAPY” (Luma Therapeutics, Inc., priority 2016, published 2019).

The data set is classed as physicochemical. The protocol: In forming the dressing shown in FIGS. 19A and 19B, the gel may be heat cured (e.g., at between 30-40° C. for between 1-4 hours, e.g., 2 hours at 35° C.). As will be described in more detail below, a very high salt (e.g., MgCl2), such as between 5% and 50% (weight of salt to weight of gel total) may be added to the hydrogel. For example 10% MgCl2 may be used which may help keep the coal tar globules or clusters from dissolving into the gel. […] In the context of the dressings described herein, a decrease in U.V. transmittance may require a longer treatment time (given that power output from the light cannot be increased) or may make treatment with the dressing impossible or impractical. […] Typically the greater the percentage of MgCl2 the better the effect. However, 5% or more may be sufficient; if longer shelf life for the dressings (e.g., beyond one week, two weeks, three weeks, on month, two months, three months, six months, 1 year, etc.) is desired higher MgCl2 percentages (e.g., 7.5%, 10%, or more) may be used.

With `[Cl-].[Cl-].[Mg+2]` [MgCl2], the “effect of additive on coal tar solubility in hydrogel” value is on record as “lower coal tar solubility”.

`OC[C@@H](O)[C@@H](O)[C@H](O)[C@@H](O)CO` [Sorbitol, sorbitol]: the “effect of additive on coal tar solubility in hydrogel” value is “increased solubility of coal tar in water”.

With coal tar, the “solubility of coal tar” value is “low solubility”.
